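Briefly, cells in 96-well plates were exposed to five compound concentrations for 48 h, and endpoints were estimated by linear interpolation. TGI: concentration producing complete growth inhibition.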
What was measured:
Test in all cases: NCI tumour cell line growth inhibition, 48 h
HL-60(TB) leukemia = tested on: HL-60(TB) leukemia
A549 NSCLC = tested on: A549 NSCLC
UO-31 renal = tested on: UO-31 renal
HCT-15 colon = tested on: HCT-15 colon
IGROV1 ovarian = tested on: IGROV1 ovarian
TK-10 renal = tested on: TK-10 renal
SF-295 CNS = tested on: SF-295 CNS
COLO 205 colon = tested on: COLO 205 colon
LXFL 529 NSCLC = tested on: LXFL 529 NSCLC
EKVX NSCLC = tested on: EKVX NSCLC
786-0 renal = tested on: 786-0 renal
NCI-H23 lung = tested on: NCI-H23 lung
NCI-H460 lung = tested on: NCI-H460 lung
CAKI-1 renal = tested on: CAKI-1 renal
XF 498 CNS = tested on: XF 498 CNS
RXF-631 renal = tested on: RXF-631 renal
OVCAR-3 ovarian = tested on: OVCAR-3 ovarian
SNB-19 CNS = tested on: SNB-19 CNS
U251 CNS = tested on: U251 CNS
HOP-18 NSCLC = tested on: HOP-18 NSCLC
SNB-75 CNS = tested on: SNB-75 CNS
HCC-2998 colon = tested on: HCC-2998 colon
SF-539 CNS = tested on: SF-539 CNS
DLD-1 colon = tested on: DLD-1 colon
SN12C renal = tested on: SN12C renal
OVCAR-4 ovarian = tested on: OVCAR-4 ovarian
HT29 colon = tested on: HT29 colon
KM12 colon = tested on: KM12 colon
M19-MEL melanoma = tested on: M19-MEL melanoma
DMS 114 small cell lung = tested on: DMS 114 small cell lung
DMS 273 small cell lung = tested on: DMS 273 small cell lung
ACHN renal = tested on: ACHN renal
SF-268 CNS = tested on: SF-268 CNS
HCT-116 colon = tested on: HCT-116 colon
K-562 leukemia = tested on: K-562 leukemia
SW-620 colon = tested on: SW-620 colon
LOX IMVI melanoma = tested on: LOX IMVI melanoma
SK-MEL-2 melanoma = tested on: SK-MEL-2 melanoma
OVCAR-5 ovarian = tested on: OVCAR-5 ovarian
SK-OV-3 ovarian = tested on: SK-OV-3 ovarian
MALME-3M melanoma = tested on: MALME-3M melanoma
UACC-257 melanoma = tested on: UACC-257 melanoma
SNB-78 CNS = tested on: SNB-78 CNS
MOLT-4 leukemia = tested on: MOLT-4 leukemia
HOP-92 NSCLC = tested on: HOP-92 NSCLC
CCRF-CEM leukemia = tested on: CCRF-CEM leukemia
SK-MEL-5 melanoma = tested on: SK-MEL-5 melanoma
UACC-62 melanoma = tested on: UACC-62 melanoma
RPMI-8226 leukemia = tested on: RPMI-8226 leukemia
KM20L2 colon = tested on: KM20L2 colon
OVCAR-8 ovarian = tested on: OVCAR-8 ovarian
HOP-62 NSCLC = tested on: HOP-62 NSCLC
M14 melanoma = tested on: M14 melanoma
A498 renal = tested on: A498 renal
SN12K1 renal = tested on: SN12K1 renal
NCI-H226 lung = tested on: NCI-H226 lung
P388 leukemia = tested on: P388 leukemia
RXF 393 renal = tested on: RXF 393 renal
NCI/ADR-RES ovarian = tested on: NCI/ADR-RES ovarian
SK-MEL-28 melanoma = tested on: SK-MEL-28 melanoma
NCI-H522 lung = tested on: NCI-H522 lung
MCF7 breast = tested on: MCF7 breast
SR leukemia = tested on: SR leukemia

Measured: TGI

C=CCCC(=O)CC(=O)OCc1ccccc1
> 100 µM: HL-60(TB) leukemia | A549 NSCLC | UO-31 renal | HCT-15 colon | IGROV1 ovarian | TK-10 renal | SF-295 CNS | COLO 205 colon | LXFL 529 NSCLC | EKVX NSCLC | 786-0 renal | NCI-H23 lung | NCI-H460 lung | CAKI-1 renal | XF 498 CNS | RXF-631 renal | OVCAR-3 ovarian | SNB-19 CNS | U251 CNS | HOP-18 NSCLC | SNB-75 CNS | HCC-2998 colon | SF-539 CNS | DLD-1 colon | SN12C renal | OVCAR-4 ovarian | HT29 colon | KM12 colon | M19-MEL melanoma | DMS 114 small cell lung | DMS 273 small cell lung | ACHN renal | SF-268 CNS | HCT-116 colon | K-562 leukemia | SW-620 colon | LOX IMVI melanoma | SK-MEL-2 melanoma | OVCAR-5 ovarian | SK-OV-3 ovarian | MALME-3M melanoma | UACC-257 melanoma | SNB-78 CNS | MOLT-4 leukemia | HOP-92 NSCLC | CCRF-CEM leukemia | SK-MEL-5 melanoma | UACC-62 melanoma | RPMI-8226 leukemia | KM20L2 colon | OVCAR-8 ovarian | HOP-62 NSCLC | M14 melanoma | A498 renal

Nc1ncc2c(n1)-c1ccccc1OC2
> 100 µM: HL-60(TB) leukemia | SN12K1 renal | A549 NSCLC | UO-31 renal | HCT-15 colon | IGROV1 ovarian | SF-295 CNS | COLO 205 colon | EKVX NSCLC | NCI-H226 lung | NCI-H23 lung | NCI-H460 lung | P388 leukemia | XF 498 CNS | OVCAR-3 ovarian | SNB-19 CNS | U251 CNS | HOP-18 NSCLC | HCC-2998 colon | RXF 393 renal | SF-539 CNS | DLD-1 colon | SN12C renal | HT29 colon | KM12 colon | M19-MEL melanoma | DMS 114 small cell lung | DMS 273 small cell lung | NCI/ADR-RES ovarian | SF-268 CNS | HCT-116 colon | K-562 leukemia | SW-620 colon | LOX IMVI melanoma | SK-MEL-2 melanoma | OVCAR-5 ovarian | SK-OV-3 ovarian | MALME-3M melanoma | UACC-257 melanoma | SK-MEL-28 melanoma | SNB-78 CNS | MOLT-4 leukemia | HOP-92 NSCLC | CCRF-CEM leukemia | SK-MEL-5 melanoma | UACC-62 melanoma | RPMI-8226 leukemia | KM20L2 colon | OVCAR-8 ovarian | NCI-H522 lung | HOP-62 NSCLC | A498 renal | MCF7 breast
> 31.6 µM: OVCAR-4 ovarian
94.4 µM: SNB-75 CNS

CCOC(=O)CC(C)C1(C=O)CCCCC1=O (centres undefined)
53.2 µM: RPMI-8226 leukemia
49.8 µM: SR leukemia
34 µM: LOX IMVI melanoma
41.6 µM: DMS 114 small cell lung
> 100 µM: HL-60(TB) leukemia | A549 NSCLC | UO-31 renal | HCT-15 colon | IGROV1 ovarian | TK-10 renal | SF-295 CNS | COLO 205 colon | LXFL 529 NSCLC | EKVX NSCLC | 786-0 renal | NCI-H226 lung | NCI-H460 lung | CAKI-1 renal | XF 498 CNS | RXF-631 renal | OVCAR-3 ovarian | SNB-19 CNS | U251 CNS | HOP-18 NSCLC | SNB-75 CNS | HCC-2998 colon | RXF 393 renal | SF-539 CNS | DLD-1 colon | SN12C renal | OVCAR-4 ovarian | KM12 colon | M19-MEL melanoma | DMS 273 small cell lung | ACHN renal | SF-268 CNS | HCT-116 colon | K-562 leukemia | SK-MEL-2 melanoma | OVCAR-5 ovarian | SK-OV-3 ovarian | MALME-3M melanoma | UACC-257 melanoma | SK-MEL-28 melanoma | SNB-78 CNS | MOLT-4 leukemia | CCRF-CEM leukemia | SK-MEL-5 melanoma | UACC-62 melanoma | KM20L2 colon | OVCAR-8 ovarian | NCI-H522 lung | HOP-62 NSCLC | M14 melanoma | A498 renal
